Reference: patent US9504858B2 (Colgate-Palmolive Company, priority 2012, dated 2016)

Legend:
bacterial culture = assay: Zone of inhibition test; assay type: cell-based; conditions: 20 μl on filter paper discs, TSA plates, 20 hours at 37° C.
Procedure: A zone of inhibition test is conducted on several materials: zinc oxide, lysine hydrochloride, and ZLC. The method involves making a lawn of freshly prepared bacterial culture on TSA (trypticase soy agar) plates. Sterile filter paper discs are seeded with 20 μl of test sample (supernatant or mixture). Sample-coated filter paper discs are air dried and applied onto the bacterial lawn on TSA plates. Plates are incubated for 20 hours at 37° C.

[1] = biological target: Bovine Serum Albumin (BSA) (Bos taurus, UniProt P02769); assay: Flocculation of ZLC in the presence of protein (BSA); assay type: physicochemical; conditions: ZLC 15 mg/ml, 5 hours, 37° C.
Bovine Serum Albumin (BSA), sequence (P02769 25-607): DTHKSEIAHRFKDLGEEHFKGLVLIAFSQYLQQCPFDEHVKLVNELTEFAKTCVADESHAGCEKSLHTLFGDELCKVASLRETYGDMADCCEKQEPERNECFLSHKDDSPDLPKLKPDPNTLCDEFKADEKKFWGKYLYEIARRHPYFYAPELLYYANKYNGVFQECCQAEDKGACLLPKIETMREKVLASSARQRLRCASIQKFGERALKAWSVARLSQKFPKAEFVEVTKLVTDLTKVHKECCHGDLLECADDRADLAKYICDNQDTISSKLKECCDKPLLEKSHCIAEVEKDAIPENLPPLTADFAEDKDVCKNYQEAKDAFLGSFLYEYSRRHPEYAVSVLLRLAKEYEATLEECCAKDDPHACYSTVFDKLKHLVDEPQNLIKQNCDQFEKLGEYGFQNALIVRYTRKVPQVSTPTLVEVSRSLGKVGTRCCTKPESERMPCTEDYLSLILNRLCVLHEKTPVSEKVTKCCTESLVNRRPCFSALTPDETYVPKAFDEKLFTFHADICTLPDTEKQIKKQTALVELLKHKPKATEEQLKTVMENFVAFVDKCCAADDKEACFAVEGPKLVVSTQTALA
Procedure: Turbidity and pH of solutions are measured 5 hours after the mixtures were placed in a 37° C. oven, and the results are shown in Table 3: […]

[2] = Hydrolysis reaction: pH and turbidity of diluted ZLC solutions before and after aging; assay type: physicochemical; conditions: for pH after aging / turbidity after aging (NTU): 37° C. oven over 5 hours
Procedure: A 185 mg/ml ZLC solution is prepared and diluted several-fold and aged in a 37° C. oven over 5 hours for turbidity studies. […] Turbidity of the solutions is measured using a nephelometer, results being given in nephelometric turbidity units (NTU).

[3] = sample 3: 1% BSA, pH adjusted to 5.13

[Zn(C6H14N2O2)2Cl]^+Cl^− [ZLC]
antibacterial activity (zone of inhibition) (bacterial culture): better antibacterial activity than zinc oxide alone or lysine hydrochloride alone | Turbidity(NTU) ([1]; sample 1: DI water, 0% BSA): 357 NTU | pH ([1]; sample 1: DI water, 0% BSA): 7.98 | Turbidity(NTU) ([1]; sample 2: 1% BSA, pH 7.17): >1000 NTU | pH ([1]; sample 2: 1% BSA, pH 7.17): 8.16 | Turbidity(NTU) [1, 3]: >1000 NTU | pH [1, 3]: 7.97 | initial pH ([2]; 5.78 mg/ml): 8.0 | initial turbidity (NTU) ([2]; 5.78 mg/ml): 40.1 NTU | pH after aging ([2]; 5.78 mg/ml): 8.0 | turbidity after aging (NTU) ([2]; 5.78 mg/ml): >1000 NTU | initial pH ([2]; 11.56 mg/ml): 7.8 | initial turbidity (NTU) ([2]; 11.56 mg/ml): 14.8 NTU | pH after aging ([2]; 11.56 mg/ml): 7.8 | turbidity after aging (NTU) ([2]; 11.56 mg/ml): >1000 NTU | initial pH ([2]; 23.125 mg/ml): 7.7 | initial turbidity (NTU) ([2]; 23.125 mg/ml): 0.70 NTU | pH after aging ([2]; 23.125 mg/ml): 7.7 | turbidity after aging (NTU) ([2]; 23.125 mg/ml): 247.4 NTU | initial pH ([2]; 46.25 mg/ml): 7.4 | initial turbidity (NTU) ([2]; 46.25 mg/ml): 1.48 NTU | pH after aging ([2]; 46.25 mg/ml): 7.4 | turbidity after aging (NTU) ([2]; 46.25 mg/ml): 2.81 NTU | initial pH ([2]; 92.5 mg/ml): 7.0 | initial turbidity (NTU) ([2]; 92.5 mg/ml): 2.78 NTU | pH after aging ([2]; 92.5 mg/ml): 7.0 | turbidity after aging (NTU) ([2]; 92.5 mg/ml): 2.60 NTU | initial pH ([2]; 185 mg/ml): 6.8 | initial turbidity (NTU) ([2]; 185 mg/ml): 4.75 NTU | pH after aging ([2]; 185 mg/ml): 6.8 | turbidity after aging (NTU) ([2]; 185 mg/ml): 4.08 NTU | behaviour of the complex upon dilution ([2]; 8×, 16× and 32× diluted solutions, precipitates identified by PXRD): disassociates upon dilution, with consequent precipitation of zinc oxide
